{"source": "patent US20260285850A1", "about": "“SUBSTITUTED OXAZOLIDINONES AND IMIDAZOLINONES AS HERBICIDES” (FMC CORPORATION, priority 2023, published 2026)", "type_in_all_cases": "in vivo", "key": {"[1]": {"test_system": "ducksalad (Heteranthera limosa)", "experiment": "Test B flooded paddy test, visual plant response rating 0-100", "settings": "250 g ai/ha, Flood, applied to paddy water, evaluated after 13 days", "in_short": "(§1)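 Plants were grown to the 2-leaf stage, then pots were flooded to 3 cm above the soil and compound was applied directly to the paddy water, with that depth kept throughout.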"}, "[2]": {"test_system": "barnyardgrass (Echinochloa crusgalli)", "experiment": "Test B flooded paddy test, visual plant response rating 0-100", "settings": "250 g ai/ha, Flood, applied to paddy water, evaluated after 13 days", "in_short": "as §1"}, "rice (Oryza sativa)": {"test_system": "rice (Oryza sativa)", "experiment": "Test B flooded paddy test, visual plant response rating 0-100", "settings": "250 g ai/ha, Flood, applied to paddy water, evaluated after 13 days", "in_short": "as §1"}, "[3]": {"test_system": "sedge, umbrella (small-flower umbrella sedge, Cyperus difformis)", "experiment": "Test B flooded paddy test, visual plant response rating 0-100", "settings": "250 g ai/ha, Flood, applied to paddy water, evaluated after 13 days", "in_short": "as §1"}, "[4]": {"test_system": "wheat (Triticum aestivum)", "experiment": "Test A postemergence application, visual injury rating 0-100", "settings": "10 days", "in_short": "(§2)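 Plants in a loam and sand soil blend were treated with each test chemical, in a non-phytotoxic solvent system including surfactant, either sprayed on seeded soil before emergence or applied after emergence at the one- to two-leaf stage. Ten days later in the greenhouse, plants were compared with untreated controls and visually rated from 0 (no effect) to 100 (complete control).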"}, "soybean (Glycine max) [5]": {"test_system": "soybean (Glycine max)", "experiment": "Test A postemergence application, visual injury rating 0-100", "settings": "10 days", "in_short": "as §2"}, "[6]": {"test_system": "green foxtail (Setaria viridis)", "experiment": "Test A postemergence application, visual injury rating 0-100", "settings": "10 days", "in_short": "as §2"}, "[7]": {"test_system": "ragweed (common ragweed, Ambrosia artemisiifolia)", "experiment": "Test A postemergence application, visual injury rating 0-100", "settings": "10 days", "in_short": "as §2"}, "corn (Zea mays) [8]": {"test_system": "corn (Zea mays)", "experiment": "Test A postemergence application, visual injury rating 0-100", "settings": "10 days", "in_short": "as §2"}, "[9]": {"test_system": "barnyardgrass (Echinochloa crus-galli)", "experiment": "Test A postemergence application, visual injury rating 0-100", "settings": "10 days", "in_short": "as §2"}, "[10]": {"test_system": "galium (catchweed bedstraw, Galium aparine)", "experiment": "Test A postemergence application, visual injury rating 0-100", "settings": "10 days", "in_short": "as §2"}, "[11]": {"test_system": "horseweed (Erigeron canadensis)", "experiment": "Test A postemergence application, visual injury rating 0-100", "settings": "10 days", "in_short": "as §2"}, "[12]": {"test_system": "blackgrass (Alopecurus myosuroides)", "experiment": "Test A postemergence application, visual injury rating 0-100", "settings": "10 days", "in_short": "as §2"}, "[13]": {"test_system": "palmer (palmer amaranth, palmer pigweed, Amaranthus palmeri)", "experiment": "Test A postemergence application, visual injury rating 0-100", "settings": "10 days", "in_short": "as §2"}, "[14]": {"test_system": "oat, wild (wild oat, Avena fatua)", "experiment": "Test A postemergence application, visual injury rating 0-100", "settings": "10 days", "in_short": "as §2"}, "kochia (Bassia scoparia) [15]": {"test_system": "kochia (Bassia scoparia)", "experiment": "Test A postemergence application, visual injury rating 0-100", "settings": "10 days", "in_short": "as §2"}, "[16]": {"test_system": "ryegrass, Italian (italian ryegrass, Lolium multiflorum)", "experiment": "Test A postemergence application, visual injury rating 0-100", "settings": "10 days", "in_short": "as §2"}, "[17]": {"test_system": "wheat (Triticum aestivum)", "experiment": "Test A preemergence soil spray, visual injury rating 0-100", "settings": "10 days, 0 = no effect, 100 = complete control", "in_short": "as §2"}, "soybean (Glycine max) [18]": {"test_system": "soybean (Glycine max)", "experiment": "Test A preemergence soil spray, visual injury rating 0-100", "settings": "10 days, 0 = no effect, 100 = complete control", "in_short": "as §2"}, "[19]": {"test_system": "green foxtail (Setaria viridis)", "experiment": "Test A preemergence soil spray, visual injury rating 0-100", "settings": "10 days, 0 = no effect, 100 = complete control", "in_short": "as §2"}, "[20]": {"test_system": "ragweed (common ragweed, Ambrosia artemisiifolia)", "experiment": "Test A preemergence soil spray, visual injury rating 0-100", "settings": "10 days, 0 = no effect, 100 = complete control", "in_short": "as §2"}, "corn (Zea mays) [21]": {"test_system": "corn (Zea mays)", "experiment": "Test A preemergence soil spray, visual injury rating 0-100", "settings": "10 days, 0 = no effect, 100 = complete control", "in_short": "as §2"}, "[22]": {"test_system": "barnyardgrass (Echinochloa crus-galli)", "experiment": "Test A preemergence soil spray, visual injury rating 0-100", "settings": "10 days, 0 = no effect, 100 = complete control", "in_short": "as §2"}, "[23]": {"test_system": "blackgrass (Alopecurus myosuroides)", "experiment": "Test A preemergence soil spray, visual injury rating 0-100", "settings": "10 days, 0 = no effect, 100 = complete control", "in_short": "as §2"}, "[24]": {"test_system": "palmer (palmer amaranth, palmer pigweed, Amaranthus palmeri)", "experiment": "Test A preemergence soil spray, visual injury rating 0-100", "settings": "10 days, 0 = no effect, 100 = complete control", "in_short": "as §2"}, "[25]": {"test_system": "oat, wild (wild oat, Avena fatua)", "experiment": "Test A preemergence soil spray, visual injury rating 0-100", "settings": "10 days, 0 = no effect, 100 = complete control", "in_short": "as §2"}, "kochia (Bassia scoparia) [26]": {"test_system": "kochia (Bassia scoparia)", "experiment": "Test A preemergence soil spray, visual injury rating 0-100", "settings": "10 days, 0 = no effect, 100 = complete control", "in_short": "as §2"}, "[27]": {"test_system": "ryegrass, Italian (italian ryegrass, Lolium multiflorum)", "experiment": "Test A preemergence soil spray, visual injury rating 0-100", "settings": "10 days, 0 = no effect, 100 = complete control", "in_short": "as §2"}, "[28]": {"settings": "31 g ai/ha, postemergence, 0 = no effect, 100 = complete control"}, "[29]": {"settings": "Postemergence, 125 g ai/ha, 0 is no effect, 100 is complete control"}}}
{"smiles": "CC(C)COC(=O)C1=CCC(NC(=O)C2(C)CN(c3cc(F)cc(F)c3)C(=O)O2)C1", "note": "(stereo not shown) [Compound 16]", "values": [{"measurement": "Plant response rating, Ducksalad (0 to 100 scale, 0 is no effect and 100 is complete control)", "setting": "[1]", "value": 70}, {"measurement": "Plant response rating, Barnyardgrass (0 to 100 scale, 0 is no effect and 100 is complete control)", "setting": "[2]", "value": 65}, {"measurement": "Plant response rating, Rice (0 to 100 scale, 0 is no effect and 100 is complete control)", "setting": "rice (Oryza sativa)", "value": 65}, {"measurement": "Plant response rating, Sedge, Umbrella (0 to 100 scale, 0 is no effect and 100 is complete control)", "setting": "[3]", "value": 65}, {"measurement": "Wheat plant response rating (0-100)", "setting": "[4]; [28]", "value": 80}, {"measurement": "Wheat plant response rating (0 to 100 scale)", "setting": "[4]; [29]", "value": 90}, {"measurement": "Soybean plant response rating (0-100)", "setting": "soybean (Glycine max) [5]; [28]", "value": 60}, {"measurement": "Soybean plant response rating (0 to 100 scale)", "setting": "soybean (Glycine max) [5]; [29]", "value": 60}, {"measurement": "Foxtail, Green plant response rating (0-100)", "setting": "[6]; [28]", "value": 90}, {"measurement": "Foxtail, Green plant response rating (0 to 100 scale)", "setting": "[6]; [29]", "value": 90}, {"measurement": "Ragweed plant response rating (0-100)", "setting": "[7]; [28]", "value": 40}, {"measurement": "Ragweed plant response rating (0 to 100 scale)", "setting": "[7]; [29]", "value": 50}, {"measurement": "Corn plant response rating (0-100)", "setting": "corn (Zea mays) [8]; [28]", "value": 90}, {"measurement": "Corn plant response rating (0 to 100 scale)", "setting": "corn (Zea mays) [8]; [29]", "value": 100}, {"measurement": "Barnyardgrass plant response rating (0-100)", "setting": "[9]; [28]", "value": 100}, {"measurement": "Barnyardgrass plant response rating (0 to 100 scale)", "setting": "[9]; [29]", "value": 100}, {"measurement": "Galium plant response rating (0-100)", "setting": "[10]; [28]", "value": 90}, {"measurement": "Galium plant response rating (0 to 100 scale)", "setting": "[10]; [29]", "value": 90}, {"measurement": "Horseweed plant response rating (0-100)", "setting": "[11]; [28]", "value": 0}, {"measurement": "Horseweed plant response rating (0 to 100 scale)", "setting": "[11]; [29]", "value": 20}, {"measurement": "Blackgrass plant response rating (0-100)", "setting": "[12]; [28]", "value": 90}, {"measurement": "Blackgrass plant response rating (0 to 100 scale)", "setting": "[12]; [29]", "value": 100}, {"measurement": "Amaranth, Palmer plant response rating (0-100)", "setting": "[13]; [28]", "value": 20}, {"measurement": "Amaranth, Palmer / Pigweed, Palmer plant response rating (0 to 100 scale)", "setting": "[13]; [29]", "value": 70}, {"measurement": "Oat, Wild plant response rating (0-100)", "setting": "[14]; [28]", "value": 60}, {"measurement": "Oat, Wild plant response rating (0 to 100 scale)", "setting": "[14]; [29]", "value": 90}, {"measurement": "Kochia plant response rating (0-100)", "setting": "kochia (Bassia scoparia) [15]; [28]", "value": 70}, {"measurement": "Kochia plant response rating (0 to 100 scale)", "setting": "kochia (Bassia scoparia) [15]; [29]", "value": 70}, {"measurement": "Ryegrass, Italian plant response rating (0-100)", "setting": "[16]; [28]", "value": 70}, {"measurement": "Ryegrass, Italian plant response rating (0 to 100 scale)", "setting": "[16]; [29]", "value": 90}, {"measurement": "Wheat plant response rating (0-100)", "setting": "[17]; 31 g ai/ha", "value": 50}, {"measurement": "Wheat plant response rating (0 to 100 scale)", "setting": "[17]; 125 g ai/ha", "value": 80}, {"measurement": "Soybean plant response rating (0-100)", "setting": "soybean (Glycine max) [18]; 31 g ai/ha", "value": 0}, {"measurement": "Soybean plant response rating (0 to 100 scale)", "setting": "soybean (Glycine max) [18]; 125 g ai/ha", "value": 0}, {"measurement": "Foxtail, Green plant response rating (0-100)", "setting": "[19]; 31 g ai/ha", "value": 0}, {"measurement": "Foxtail, Green plant response rating (0 to 100 scale)", "setting": "[19]; 125 g ai/ha", "value": 100}, {"measurement": "Ragweed plant response rating (0-100)", "setting": "[20]; 31 g ai/ha", "value": 0}, {"measurement": "Ragweed plant response rating (0 to 100 scale)", "setting": "[20]; 125 g ai/ha", "value": 20}, {"measurement": "Corn plant response rating (0-100)", "setting": "corn (Zea mays) [21]; 31 g ai/ha", "value": 20}, {"measurement": "Corn plant response rating (0 to 100 scale)", "setting": "corn (Zea mays) [21]; 125 g ai/ha", "value": 70}, {"measurement": "Barnyardgrass plant response rating (0-100)", "setting": "[22]; 31 g ai/ha", "value": 0}, {"measurement": "Barnyardgrass plant response rating (0 to 100 scale)", "setting": "[22]; 125 g ai/ha", "value": 90}, {"measurement": "Blackgrass plant response rating (0-100)", "setting": "[23]; 31 g ai/ha", "value": 0}, {"measurement": "Blackgrass plant response rating (0 to 100 scale)", "setting": "[23]; 125 g ai/ha", "value": 40}, {"measurement": "Amaranth, Palmer plant response rating (0-100)", "setting": "[24]; 31 g ai/ha", "value": 0}, {"measurement": "Amaranth, Palmer plant response rating (0 to 100 scale)", "setting": "[24]; 125 g ai/ha", "value": 80}, {"measurement": "Oat, Wild plant response rating (0-100)", "setting": "[25]; 31 g ai/ha", "value": 0}, {"measurement": "Oat, Wild plant response rating (0 to 100 scale)", "setting": "[25]; 125 g ai/ha", "value": 50}, {"measurement": "Kochia plant response rating (0-100)", "setting": "kochia (Bassia scoparia) [26]; 31 g ai/ha", "value": 0}, {"measurement": "Kochia plant response rating (0 to 100 scale)", "setting": "kochia (Bassia scoparia) [26]; 125 g ai/ha", "value": 40}, {"measurement": "Ryegrass, Italian plant response rating (0-100)", "setting": "[27]; 31 g ai/ha", "value": 40}, {"measurement": "Ryegrass, Italian plant response rating (0 to 100 scale)", "setting": "[27]; 125 g ai/ha", "value": 90}]}
